Test results from patent US20220211858A1, “TUBULAR SUPRAMOLECULAR POLYMERS” (priority 2019, published 2022).
Like-named read-outs stand apart in the source and are kept apart here.

Experiments:
[1] = Tolerability of free CPT in mice; format: in vivo
Procedure: Due to its poor water solubility, free CPT is often given in a formulation containing a mixture of DMSO/ethanol/PEG-400/water at a volumetric ratio of 1:1:2:1 (24). […] We eventually identified an intraperitoneal injection of 4.5 mg/kg CPT to be a tolerable dosage for animal studies. In contrast, the MTD of TT 1 SPs in healthy athymic nude mice, identified in a dose escalation study through systemic administration, is within the range of 24-30 mg/kg (CPT equivalent) (FIG. 3D and FIG. 13). […] Four out of five mice survived for up to 37 d (9 mg/kg) and 43 d (15 mg/kg).

[2] = tested on: U87 MG human brain cancer cells; test: cells; conditions: U-87 MG, 48 h
Procedure: (§1) The human brain cancer cell line U87 MG was a generous gift from Dr. Wirtz (ChemBE, JHU). DMEM (Invitrogen) containing 10% fetal bovine serum (FBS, Invitrogen) and 1% antibiotics (Invitrogen) was used for the culture of the U87 MG cells. Cancer cells were incubated at 37° C. in a humidified incubator (Oasis, Caron, Marietta, Ohio, USA) with an atmosphere of 5% CO2. […] U87 MG cells were seeded onto 96-well plates (5000 cells/well) and allowed to attach overnight. […] The stock solutions were then diluted with fresh medium to achieve final CPT concentrations of 0.1, 1, 10, 100, 500, 1000, 5000 and 10000 nM. After dilution, the nanotube-containing media were used to incubate cells immediately. Medium containing the same concentration of free CPT ranging from 0.1 to 10000 nM was also used to incubate the cells, with non-treated cells (solvent only) as the control group. In addition, irinotecan at the concentration of 0.1, 1, 5, 10, 50, 100 and 500 μM was employed as a second control. After 48 h incubation, the cell viability was evaluated using the SRB method according to the manufacturer's protocols (TOX-6, Sigma, St. Louis, Mo.).

[3] = Biodistribution study in U87 MG tumor-bearing mice; format: in vivo, nude mice; conditions: nude, mouse, in vivo, 4.5 mg/kg, 4.5 mg/kg i.v., 1 hour after injection
Procedure: Mice bearing subcutaneous tumors were established by injecting 100 μL of a U87 MG suspension in serum-free medium (2×10^6 cells) into the right flank of the mice. When the tumor reached a size of −200 mm^3, the mice were randomly grouped and received one of the following 3 treatments via intravenous injection (n=18 for each group): free CPT (4.5 mg/kg), TT 1 (4.5 mg/kg), and TT 1 (15 mg/kg). Three mice from each group were euthanized at pre-determined time points (1, 2, 4, 8, 12, and 24 h). Plasma, major organs, and tumors were collected and stored at −80° C. for further analysis. To determine the amount of free CPT and TT 1 in the samples, 100 mg tumors were mixed with 900 μL acetonitrile (containing 0.1% TFA) and then homogenized using Precellys Evolution Super Homogenizer (Bertin Technologies, France) for 3×40 s (5,600 shakes/min). The resulting suspensions were centrifuged and the supernatants were collected. For plasma, 50 μL of sample was mixed with 450 μL acetonitrile (containing 0.1% TFA) and sonicated for 1 min. The supernatants were collected using centrifugation. All samples were filtered through a 0.22 μm membrane before analysis by a UPLC system (Waters ACQuity™ Ultra Performance LC) equipped with a reverse-phase column (ACQuity UPLC@BEH, C18, 1.7 μm 2.1×150 mm) and a fluorescence detector (ACQuity FLR, Ex/Em=362/430 nm). The column was flushed with a mixture of water (0.1% TFA) and acetonitrile (0.1% TFA) at 0.3 mL/min with the following gradient: 5% acetonitrile (0-1 min), 5-95% acetonitrile (1-5 min), 95% acetonitrile (5-8 min), 95-5% acetonitrile (8-9 min), and 5% acetonitrile (9-10 min). Peaks with retention times of 5.4 min (free CPT) and 6.9 min (TT 1) were monitored.

HT-29 cells = tested on: HT-29 cells
Description: Antitumor efficacy study of SAPDs at the same dose on a HT-29 tumor model. […] When the averaged tumor size reached 75-95 mm^3, mice were randomly divided into six groups. […] The tumor volumes and body weights were monitored and recorded every two or three days. The tumor volume was estimated by measuring the length and width with calipers and using the equation “tumor volume=(length×width^2)/2”. Mice were euthanized once the tumor volume reached 1000 mm^3.

[4] = tested on: human glioblastoma U87 MG cells; test: Antitumor efficacy study for systemic delivery, subcutaneous U87 MG tumor; format: in vivo, athymic nude mice; conditions: controls: free CPT 4.5 mg/kg i.p.; irinotecan 60 mg/kg i.p.
Procedure: A total of 2×10^6 human glioblastoma U87 MG cells were subcutaneously injected into the right shoulder of athymic nude mice (8-9 weeks old). The mice were used for the efficacy study after three to four weeks when the tumor had reached about 190-250 mm^3 in size. […]. Water insoluble free CPT was dissolved/suspended in a mixture of DMSO/ethanol/PEG-400/water (1:1:2:1). CPT (4.5 mg/kg) and irinotecan (60 mg/kg) were administered by intraperitoneal injection, while freshly prepared TT 1 solutions of various doses were administered intravenously by tail vein injection every 4 days for a total of three doses (days 1, 5, and 9). […]. Tumor volumes were measured and recorded every other day. The body weights were measured and recorded every day or every other day. The tumor volume was determined by measuring the tumor in two dimensions with calipers and using the formula “tumor volume=(length×width^2)/2”. Each animal was euthanized once the tumor volume reached the predetermined end point size of 2000 mm^3.

[5] = Zeta potential measurement; format: physicochemical; conditions: 1×-DPBS buffer
Procedure: TT solutions of 200 μM in 1×-DPBS buffer (pH=7.4) were prepared by directly mixing identical volumes of a 400 μM aqueous TT solution and 2×-DPBS buffer (pH=7.4). In some embodiments, solutions at a concentration of 2 mM in PBS buffer (pH=7.4) were prepared and aged overnight prior to zeta potential measurement. TT solutions of 200 μM in 1×-DPBS buffer (pH=5.0) were prepared by mixing identical volumes of a 400 μM aqueous TT solution and 2×-DPBS buffer (pH=5.0), which was pretreated with 6 M HCl. The zeta potential measurements were performed on a Zetasizer Nano ZS90 (Malvern Instruments Ltd., UK). The prepared solutions were loaded in capillary cells and equilibrated for 2 min prior to measurement. The average values and their standard deviations are calculated from three replicate measurements. The zeta potential of the assembled structures was obtained by measuring the electrophoretic movement of the nanostructures under the applied electric field, where the movement velocity is determined by phase analysis light scattering. Variations of the zeta potential value over time were determined by measuring the solutions at different aging time points (1, 2, 4 and 7 days) and are plotted in FIG. 10.

[6] = tested on: U87 MG human glioblastoma; test: Antitumor efficacy study for local delivery (intratumoral TT 2 hydrogel); format: in vivo, athymic nude mice; conditions: 10 mM hydrogel, 30 μL intratumoral
Procedure: The hydrogel formation of TT 2 in vivo was investigated through subcutaneous injection of a TT 2 gel. […] The tumor model used in local delivery is the same U87 MG human glioblastoma line used in the systemic delivery study described above. Mice were randomly selected (n=7) and treated with TT 2 hydrogel at a fixed dose (10 mM, 30 μL) through intratumoral injection. Tumor volumes and body weights were measured and recorded every other day. The tumor volume was determined by measuring the tumor in two dimensions with calipers and using the formula “tumor volume=(length×width^2)/2”. Each animal was euthanized once the tumor […] reached the predetermined end point size of 2000 mm^3.
The antitumor efficacy of TT 2 hydrogel was then evaluated in a subcutaneous U87 MG xenograft model via intratumoral injection of a 10 mM TT 2 SP hydrogel (30 μL). All seven mice studied experienced tumor regression with a minimum mean tumor volume of 36 mm^3 at day 25 and survived for more than 45 days (FIG. 3K).

[7] = TEM / cryo-TEM imaging of self-assembled nanostructures (dimensions); format: physicochemical; conditions: self-assembled nanotubes in water, 200 μM, n>40
Procedure: About 200 μM stock solutions of corresponding TTs in water were prepared by dissolution of the lyophilized powders. After aging overnight, TEM samples were prepared by depositing 7 μL of the appropriate solution onto a carbon-coated copper grid (Electron Microscopy Services, Hatfield, Pa., USA), wicking away the excess solution with a small piece of filter paper. Next, 7 μL of a 2 wt % uranyl acetate aqueous solution was deposited on the surface for 30 seconds, wicking away the excess solution with filter paper. The grids were then air-dried overnight at room temperature prior to imaging. Bright-field TEM imaging was performed using an FEI Tecnai 12 TWIN Transmission Electron Microscope operated at an acceleration voltage of 100 kV. All TEM images were acquired by a SIS Megaview III wide-angle CCD camera or 16 bit 2K×2K FEI Eagle bottom mount camera.
Cryo-TEM imaging was performed using higher sample concentrations of 800 μM (compared with 200 μM for conventional TEM imaging). Extended imaging times can result in damage to the vitreous ice film caused by the electron beam and so higher concentrations can allow a more rapid visualization that reduces this likelihood. About 6 μL of the appropriate solution was dropped onto a lacey carbon-film-supported TEM copper grid (Electron Microscopy Services, Hatfield, Pa., USA). All the TEM grids used for cryo-TEM imaging were pretreated with plasma air to render the lacey carbon film hydrophilic. A thin film of the sample solution was produced using a Vitrobot with a controlled humidity chamber (FEI). After loading of the sample solution, the lacey carbon grid was blotted using preset parameters and plunged instantly into a liquid ethane reservoir precooled by liquid nitrogen. The vitrified samples were then transferred to a cryo-holder and cryo-transfer stage that was cooled by liquid nitrogen. To prevent sublimation of vitreous water, the cryo-holder temperature was maintained below −170° C. during the imaging process. All images were recorded by a Tecnai 12 microscope with a cryo-holder, and the images were acquired by a 16 bit 2K×2K FEI Eagle bottom mount camera.
Self-Assembly of SAPDs from TT1. To study the self-assembly behavior of the SAPDs, we directly dissolved the lyophilized powders in deionized water at a concentration of 2 mM and neutral pH.

[8] = Gel release of TT 2 nanotube hydrogel; format: physicochemical; conditions: 10 mM in 1×-DPBS, 37° C., over 31 days
Procedure: TT 2 was dissolved in water and hydrogel formation triggered by the addition of 10×-DPBS to give a final TT 2 concentration of 10 mM in 1×-DPBS. 200 μL of the hydrogel was placed at the bottom of centrifuge tube and allowed to re-gel overnight. Three replicate experiments were prepared together and incubated at 37° C. Fresh 1×-DPBS (300 μL) was layered on top of the hydrogel and was refreshed at predetermined time points: 1, 2, 4, 7, 10, 13, 16, 19, 22, 25, 28, and 31 days. The samples were frozen with liquid nitrogen and stored at −30° C. until analysis. The amount of TT 2 in the top DPBS layer was determined by analytical RP-HPLC using the conditions described in the previous paragraph. The cumulative release of TT 2 from its hydrogels was calculated and plotted as a percentage of the total amount of hydrogel. The conjugate was seen to be released almost linearly from the hydrogel with ˜10% of the prodrugs being released over the 31-day period.

[9] = tested on: U87 MG human brain cancer cells; conditions: 48 h
Procedure: as §1

[10] = in vivo; cited from earlier work

SMILES | IC50 [2] [µM] | median survival [4] [days] | ζ-Potential ([5]; pH 5.0, 200 μM) [mV] | ζ-Potential ([5]; pH 7.4, 200 μM) [mV] | Diameters measured by conventional TEM [7] [nm] | ζ-potential at pH 7.4 versus pH 5.0 [5] | also measured
CC[C@@]1(O)C(=O)OCc2c1cc1n(c2=O)Cc2cc3ccccc3nc2-1 [CPT, Camptothecin, reference compound] | 0.062 | 17 | – | – | – | – | outcome of intravenous administration ([1]; 9 mg/kg i.v., DMSO/ethanol/PEG-400/water formulation): immediate death; tolerable dosage ([1]; intraperitoneal injection): 4.5 mg/kg; MTD ([1]; mouse, in vivo, intraperitoneal): ~5 mg/kg; concentration at 1 h ([3]; read-out: drug concentration in plasma): 37 ng/g; concentration at 1 h ([3]; read-out: drug concentration in tumor): 92 ng/g; treatment outcome (deaths) (HT-29 cells; free CPT 9 mg/kg i.p., n=5): death of all five mice after the second dose
CC[C@]1(OC(=O)OCCSSC[C@@H](NC(C)=O)C(=O)N[C@@H](CCCCNC(=O)[C@@H](CSSCCOC(=O)O[C@]2(CC)C(=O)OCc3c2cc2n(c3=O)Cc3cc4ccccc4nc3-2)NC(C)=O)C(=O)N[C@@H](CCCCN)C(=O)N[C@@H](CCCCN)C(N)=O)C(=O)OCc2c1cc1n(c2=O)Cc2cc3ccccc3nc2-1 [TT 2] | – | – | 31.8 | 22.1 | 8.1 ± 0.6 | – | mice with complete tumor regression [6]: Four out of seven; survival to end point of tumor-free mice [6]: around 140 d; minimum mean tumor volume ([6]; day 25, n=7): 36 mm^3; survival of all treated mice ([6]; n=7): more than 45 days; cumulative release of TT 2 from hydrogel [8]: ~10%; IC50 [9]: 0.123 µM
CC[C@]1(OC(=O)OCCSSC[C@@H](NC(C)=O)C(=O)N[C@@H](CCCCNC(=O)[C@@H](CSSCCOC(=O)O[C@]2(CC)C(=O)OCc3c2cc2n(c3=O)Cc3cc4ccccc4nc3-2)NC(C)=O)C(=O)N[C@@H](CCC(=O)O)C(=O)N[C@@H](CCC(=O)O)C(N)=O)C(=O)OCc2c1cc1n(c2=O)Cc2cc3ccccc3nc2-1 [TT 3] | – | – | – | – | 8.4 ± 0.9 | more negative ζ-potentials at pH 7.4 than 5.0 | –
CC[C@]1(OC(=O)OCCSSC[C@@H](NC(C)=O)C(=O)N[C@@H](CCCCNC(=O)[C@@H](CSSCCOC(=O)O[C@]2(CC)C(=O)OCc3c2cc2n(c3=O)Cc3cc4ccccc4nc3-2)NC(C)=O)C(=O)N[C@@H](CCCCN)C(=O)N[C@@H](CCC(=O)O)C(N)=O)C(=O)OCc2c1cc1n(c2=O)Cc2cc3ccccc3nc2-1 [TT 4] | – | – | −2.3 | −18.8 | 8.3 ± 0.9 | – | –
CC[C@]1(OC(=O)OCCSSC[C@@H](NC(C)=O)C(=O)N[C@@H](CCCCNC(=O)[C@@H](CSSCCOC(=O)O[C@]2(CC)C(=O)OCc3c2cc2n(c3=O)Cc3cc4ccccc4nc3-2)NC(C)=O)C(=O)N[C@H](CCCCNC(=O)CN2CCN(CC(=O)O)CCN(CC(=O)O)CCN(CC(=O)O)CC2)C(N)=O)C(=O)OCc2c1cc1n(c2=O)Cc2cc3ccccc3nc2-1 [TT 5] | – | – | – | – | 8.4 ± 0.9 | more negative ζ-potentials at pH 7.4 than 5.0 | –
CCc1c2c(nc3ccc(OC(=O)N4CCC(N5CCCCC5)CC4)cc13)-c1cc3c(c(=O)n1C2)COC(=O)[C@]3(O)CC [irinotecan, reference compound] | 6.5 | 27 | – | – | – | – | reported MTD [10]: 100 mg/kg; median survival (HT-29 cells; SAPDs 10 mg/kg i.v. days 1, 5, 9, 13, irinotecan 100 mg/kg i.p. days 1, 8, 15): 51 days
